Test results as given in patent US20250228840A1, “METHODS OF TREATING SJÖGREN-LARSSEN SYNDROME” (Aldeyra Therapeutics, Inc., priority 2022, published 2025).
Entries after “also recorded” stand apart in the source; their conditions may differ.

Legend:
[1] = system: cultured Chinese hamster cells lacking FALDH; assay: Fatty aldehyde adducts, cytotoxicity and metabolism in cultured FALDH-deficient cells; format: cell-based
From the text: (§1) Aldehydes are toxic molecules due to their propensity to covalently attach to proteins and other target molecules containing certain reactive chemical groups. Drugs that detoxify reactive aldehydes are under development for various inflammatory conditions characterized by the excessive formation of aldehydes. […] This clinical trial will investigate the safety and biochemical efficacy of systemic administration of Compound 1 in SLS.
There are no satisfactory animal models of SLS, thereby limiting preclinical testing to in vitro cellular studies. […] The detoxified ADX-102-fatty aldehyde by-products are degraded intracellularly. Thus, treatment of cultured FALDH-deficient cells with ADX-102 bypasses the lost catabolic function of FALDH on aldehydes in SLS and diminishes aldehyde load.

Oral absorption = format: in vivo
From the text: as §1

[2] = system: cultured Chinese hamster cells lacking FALDH; details: cultured FALDH-deficient cells; long-chain (C16-C18) fatty aldehydes; cited from earlier work
SLS subjects = details: applied topically as a cream; cited from earlier work
[3] = system: allergic conjunctivitis and dry eye; details: ophthalmic preparation, Phase-2; cited from earlier work
[4] = Exemplary PK results after oral administration of I-1 unit dosage form, daily dose 20-1200 mg (Table 2); format: in vivo; details: human subject
Description: In some embodiments, a unit dosage form described herein that comprises compound I-1, or a pharmaceutically acceptable salt thereof, upon oral administration to a human subject in a daily dose of 20 mg, 50 mg, 100 mg, 200 mg, 400 mg, 700 mg, or 1200 mg (or about such doses, as the case may be), provides a pharmacokinetic result shown in the table below:
In some embodiments, the human subject is a healthy human subject.
In some embodiments, the pharmacokinetic result described herein is obtained in a healthy human subject.

## CC(C)(O)c1nc2ccc(Cl)cc2cc1N [ADX-102, 2-[3-amino-6-chloro-quinolin-2-yl]-propan-2-ol]
[1]
  fatty aldehyde cytotoxicity and apoptosis: mitigate aldehyde cytotoxicity; also recorded: reverses fatty aldehyde cytotoxicity and apoptosis
[1]; C18:0, octadecanal, data not shown
  metabolism of fatty aldehyde to fatty alcohol: prevent metabolism of fatty aldehydes to fatty alcohols; also recorded: blocks the metabolism of fatty aldehyde (C18:0, octadecanal) to fatty alcohol
[1]; data not shown
  effect on synthesis or degradation of fatty alcohol itself: no effect
Oral absorption
  oral absorption: poor absorption qualities
[2]
  formation of fatty aldehyde covalent adducts with PE (NAPE) / cellular lipids: block the formation of long-chain (C16-C18) fatty aldehyde adducts with cellular lipids; also recorded: prevents fatty aldehydes from forming covalent adducts with PE (NAPE)
SLS subjects
  ichthyosis: improve ichthyosis
[3]
  clinical activity in allergic conjunctivitis and dry eye: beneficial activity

## CC(C)(O)c1nc2ccccc2cc1N [Compound I-1]
[4]; daily dose 20 mg (or about)
  AUCinf: 50.0 ng·h/mL
  Cmax: 26.4 ng/mL
[4]; daily dose 50 mg (or about)
  AUCinf: 156 ng·h/mL
  Cmax: 56.7 ng/mL
[4]; daily dose 100 mg (or about)
  AUCinf: 433 ng·h/mL
  Cmax: 140 ng/mL
  t1/2: ~3.52 h
[4]; daily dose 200 mg (or about)
  AUCinf: 1140 ng·h/mL
  Cmax: 459 ng/mL
  t1/2: ~6.04 h
[4]; daily dose 400 mg (or about)
  AUCinf: 2730 ng·h/mL
  Cmax: 869 ng/mL
  t1/2: ~6.15 h
[4]; daily dose 700 mg (or about)
  AUCinf: 6710 ng·h/mL
  Cmax: 2020 ng/mL
  t1/2: ~7.33 h
[4]; daily dose 1200 mg (or about)
  AUCinf: 14500 ng·h/mL
  Cmax: 4220 ng/mL
  t1/2: ~7.69 h
Oral absorption
  oral absorption: well-absorbed orally
